Measured values: the Kinase Knowledgebase extract (Sharma et al. 2016)

Target: MAPK14 (human) (UniProt Q16539)
Assay: Inhibition of MAPK14 Kinase Activity
Conditions: THP.1 monocytic

Sequence of MAPK14 (human) (Q16539 whole entry, looked up): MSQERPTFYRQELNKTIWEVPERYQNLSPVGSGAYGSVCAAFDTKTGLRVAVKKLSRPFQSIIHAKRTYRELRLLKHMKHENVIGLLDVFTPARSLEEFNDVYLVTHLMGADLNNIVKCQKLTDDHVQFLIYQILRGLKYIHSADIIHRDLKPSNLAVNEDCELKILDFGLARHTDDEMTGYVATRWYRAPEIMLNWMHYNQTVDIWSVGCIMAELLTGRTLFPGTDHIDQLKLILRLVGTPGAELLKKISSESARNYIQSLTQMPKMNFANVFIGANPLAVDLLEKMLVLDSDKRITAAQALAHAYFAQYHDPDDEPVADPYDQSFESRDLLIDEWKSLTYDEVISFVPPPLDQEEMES

Row | Structure (SMILES) | IC50 [µM]
1 | Cc1ccc(CO)cc1-n1c(C)cc(OCc2ccc(F)cc2F)c(Cl)c1=O | < 1
2 | COCCN(C)C(=O)c1ccc(Cn2c(C)cc(OCc3ccc(F)cc3F)c(Br)c2=O)cc1 | < 1
3 | Cc1cc(OCc2ccc(F)cc2F)c(Cl)c(=O)n1-c1c(F)cccc1F | < 1
4 | COCCNCc1cc(OCc2ccc(F)cc2F)c(Br)c(=O)n1-c1c(F)cccc1F | < 1
5 | O=c1c(Br)c(OCc2ccccc2)ccn1Cc1ccccc1F | < 1
6 | C=Cc1c(OCc2ccccc2)ccn(Cc2ccccc2)c1=O | 25 to 100
7 | O=c1cc(OCc2cccc(Cl)c2)ccn1Cc1ccccc1 | 25 to 100
8 | Cc1ccc(C(N)=O)cc1-n1c(C)cc(OCc2ccc(F)cc2F)c(Cl)c1=O | < 1
9 | Cc1cc(OCc2ccc(F)cc2F)c(Br)c(=O)n1-c1c(F)cc(N(C)CCO)cc1F | < 1
10 | Cc1cc(OCc2ccc(F)cc2F)c(Cl)c(=O)n1Cc1cnc(CO)cn1 | 1 to 25
11 | Cc1cc(OCc2ccc(F)cc2F)c(Br)c(=O)n1-c1ccc(C(N)=O)cc1 | 1 to 25
12 | Cc1cc(OCc2ccc(F)cc2F)c(Br)c(=O)n1-c1ccc(CNC(=O)CO)cc1 | < 1
13 | Cc1cc(CCc2ccccc2)c(Br)c(=O)n1Cc1cccc(F)c1 | 1 to 25
14 | O=c1c(Br)c(CCc2ccccc2)ccn1Cc1cccc(F)c1 | 1 to 25
15 | C=Cc1c(OCc2ccc(F)cc2F)c(Br)c(=O)n(-c2c(F)cccc2F)c1C | 25 to 100
16 | Cc1cc(OCc2ccc(F)cc2F)c(Br)c(=O)n1Cc1cnc(CN(C)C)cn1 | 1 to 25
17 | O=c1c(Br)c(OCc2ccccc2)ccn1Cc1ccc(Cl)cc1 | < 1
18 | Cc1c(OCc2ccc(F)cc2)ccn(Cc2cccc(F)c2)c1=O | 1 to 25
19 | Cc1c(CO)c(OCc2ccc(F)cc2F)c(Br)c(=O)n1-c1c(F)cccc1F | 1 to 25
20 | O=C(O)c1ccc(Cn2ccc(OCc3ccccc3)c(Br)c2=O)cc1 | < 1
21 | CN(C(=O)Oc1ccn(Cc2ccccc2)c(=O)c1Br)c1ccccc1 | > 100
22 | Cc1c(I)c(NCc2ccccc2)c(Br)c(=O)n1-c1c(F)cccc1F | 1 to 25

Row | Structure (SMILES) | IC50 [µM]
23 | Cc1ncc(Cn2c(C)cc(OCc3ccc(F)cc3F)c(Cl)c2=O)c(N)n1 | 1 to 25
24 | Cc1cc(OCc2ccc(F)cc2F)c(Br)c(=O)n1Cc1cccc(CNS(C)(=O)=O)c1 | < 1
25 | Cc1cc(OCc2ccc(F)cc2F)c(Br)c(=O)n1-c1cccc(C(=O)NCCO)c1 | < 1
26 | Cc1c(C(O)CO)c(OCc2ccc(F)cc2F)c(Br)c(=O)n1-c1c(F)cccc1F (centres undefined) | 25 to 100
27 | C=CCNc1cc(=O)n(-c2c(F)cccc2F)c(C)c1I | 1 to 25
28 | O=C(Nc1ccn(Cc2cccc(F)c2)c(=O)c1Br)c1c(F)cccc1F | 1 to 25
29 | CCOC(=O)c1cnc(Cn2c(C)cc(OCc3ccc(F)cc3F)c(Cl)c2=O)cn1 | < 1
30 | CC(C)(C)c1ccc(COc2ccn(Cc3cccc(F)c3)c(=O)c2Br)cc1 | > 100
31 | COc1cccc(COc2ccn(Cc3cccc(F)c3)c(=O)c2Br)c1 | 1 to 25
32 | Cc1cc(OCc2ccc(F)cc2F)c(Br)c(=O)n1Cc1ccc(S(=O)(=O)N(C)C)cc1 | < 1
33 | O=c1cc(OCc2ccccc2)ccn1Cc1ccc(Br)cc1 | > 100
34 | CC(=O)NCc1cccc(-n2c(C)cc(OCc3ccc(F)cc3F)c(Br)c2=O)c1 | 1 to 25
35 | O=c1c(Br)c(OCc2ccccc2Cl)ccn1Cc1ccccc1 | 1 to 25
36 | CCOC(=O)c1ccc(-n2c(C)cc(OCc3ccc(F)cc3F)c(Br)c2=O)nc1 | 25 to 100
37 | O=c1c(Br)c(OCc2ccccc2)ccn1CC1CCNCC1 | 25 to 100
38 | Cc1cc(OCc2ccc(F)cc2F)c(Br)c(=O)n1Cc1ccc(C(=O)NCCCN)cc1 | < 1
39 | Cc1cc(OCc2ccc(F)cc2F)c(Cl)c(=O)n1-c1c(F)cc(F)cc1F | < 1
40 | O=c1c(Br)c(O)ccn1Cc1ccc(O)cc1 | > 100
41 | O=c1cc(OCc2ccccc2)ccn1Cc1ccc(OC(F)(F)F)cc1 | 25 to 100
42 | Cc1cc(OCc2ccc(F)cc2F)c(Br)c(=O)n1-c1cccc(C(N)=O)c1 | < 1
43 | Cc1cc(OCc2ccc(F)cc2F)c(Br)c(=O)n1Cc1ccccc1CN | 1 to 25
44 | O=c1c(Br)c(NCc2cccc(F)c2)ccn1Cc1cccc(F)c1 | 1 to 25
